Test results from patent US8722849B2, “Polypeptides” (Novo Nordisk A/S, priority 2011, dated 2014).
≈ marks a conversion by molar mass, not a printed value. Read-outs that look alike come from different tables or passages of the source. Starred links: 1 amine or outer side, 2 acyl side, 3 side chain; linkers in the order of their positions; H or OH if unused. Positions of bridges follow the written chain, without caps; N, C: chain ends. Residues, ends and D or L forms follow the SMILES beside them. *: point of attachment. C20 diacid = O=C(O)CCCCCCCCCCCCCCCCCCC(=O)*; γGlu = O=C(O)[C@H](CCC(=O)[*:2])N[*:1]

How the values were obtained:
[1] = molecular target: T1, human amylin receptor (amylin 3(a) receptor: human calcitonin receptor + RAMP-3) (Homo sapiens, UniProt O60896+P30988); assay: Assay (II)a functional CRE-luciferase assay, human amylin receptor; assay type: cell-based; conditions: Table 2; BHK amylin 3(a)-receptor/CRE-luc cells
T1 construct: expressed in transfected cells; host or cells: BHK570
T1 sequence (P30988 25-474): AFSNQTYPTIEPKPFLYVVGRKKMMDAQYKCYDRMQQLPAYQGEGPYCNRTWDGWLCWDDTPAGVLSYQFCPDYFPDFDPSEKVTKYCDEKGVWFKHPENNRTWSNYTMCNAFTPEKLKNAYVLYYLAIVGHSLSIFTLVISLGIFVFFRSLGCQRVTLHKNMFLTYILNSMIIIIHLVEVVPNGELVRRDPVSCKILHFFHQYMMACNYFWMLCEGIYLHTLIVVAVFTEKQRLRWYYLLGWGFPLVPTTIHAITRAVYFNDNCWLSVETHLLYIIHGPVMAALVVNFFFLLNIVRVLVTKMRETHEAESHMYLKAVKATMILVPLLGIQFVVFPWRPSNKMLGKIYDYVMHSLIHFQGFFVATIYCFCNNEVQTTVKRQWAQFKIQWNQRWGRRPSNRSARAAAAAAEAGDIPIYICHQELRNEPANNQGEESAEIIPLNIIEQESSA
T1 sequence (O60896 24-148 partner): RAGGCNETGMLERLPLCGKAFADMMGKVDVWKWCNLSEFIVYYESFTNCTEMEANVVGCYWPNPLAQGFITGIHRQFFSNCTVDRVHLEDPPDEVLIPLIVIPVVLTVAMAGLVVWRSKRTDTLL

[2] = molecular target: T2, rat calcitonin (a) receptor (Rattus norvegicus, UniProt P32214); assay: Assay (II)b functional cAMP FlashPlate assay, rat calcitonin receptor; assay type: cell-based; conditions: Table 11; read-out: CTa receptor rat EC50
T2 construct: expressed in transfected cells; host or cells: BHK tk'ts 13
T2 sequence (P32214 25-479 isoform P32214-2 limits assumed): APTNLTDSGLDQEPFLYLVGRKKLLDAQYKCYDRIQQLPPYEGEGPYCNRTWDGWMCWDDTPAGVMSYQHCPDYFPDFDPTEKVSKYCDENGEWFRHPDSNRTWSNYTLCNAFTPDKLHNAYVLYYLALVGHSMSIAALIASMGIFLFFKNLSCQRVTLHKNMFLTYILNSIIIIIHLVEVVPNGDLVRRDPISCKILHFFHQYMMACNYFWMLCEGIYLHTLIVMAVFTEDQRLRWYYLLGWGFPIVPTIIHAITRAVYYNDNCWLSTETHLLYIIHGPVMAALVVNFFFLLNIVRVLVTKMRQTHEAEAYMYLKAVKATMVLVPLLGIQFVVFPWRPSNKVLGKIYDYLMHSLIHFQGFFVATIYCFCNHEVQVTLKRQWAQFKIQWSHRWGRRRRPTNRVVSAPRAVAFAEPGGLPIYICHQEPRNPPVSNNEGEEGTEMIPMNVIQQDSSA
Outline: (§1)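 cAMP accumulation in transiently transfected BHK tk'ts 13 cells, 100.000 cells/well, expressing rat calcitonin(a) receptor or its RAMP3 co-expression form (amylin 3(a)): 30 min stimulation with IBMX, 24 hours post-transfection. Readout by competition of cellular versus radiolabelled cAMP in FlashPlates, scintillation counted after 3 h.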

[3] = molecular target: T3, rat amylin 3(a) receptor (rat calcitonin(a) receptor + rat RAMP3) (Rattus norvegicus, UniProt P32214+Q9JJ73); assay: Assay (II)b functional cAMP FlashPlate assay, rat amylin receptor; assay type: cell-based; conditions: Table 11
T3 construct: expressed in transfected cells; host or cells: BHK tk'ts 13
T3 sequence (P32214 25-479 isoform P32214-2 limits assumed): T2 sequence (P32214 25-479 isoform P32214-2 limits assumed)
T3 sequence (Q9JJ73 23-147 partner): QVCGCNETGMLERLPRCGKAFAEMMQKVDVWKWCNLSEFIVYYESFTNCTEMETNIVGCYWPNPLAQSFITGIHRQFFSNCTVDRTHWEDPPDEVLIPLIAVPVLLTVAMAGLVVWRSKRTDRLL
Outline: as §1

[4] = molecular target: T4, human calcitonin receptor (Homo sapiens, UniProt P30988); assay: Assay (II)a functional CRE-luciferase assay, human calcitonin receptor; assay type: cell-based; conditions: Table 7; human calcitonin (CTa) receptor
T4 construct: expressed in transfected cells; host or cells: BHK570
T4 sequence (P30988 25-474): T1 sequence (P30988 25-474)

[5] = Assay (IV) determination of solubility; assay type: physicochemical
Outline: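 Stock ~500 nmol/ml in water; 1:1 with 100 mM buffer, pH 3.0–8.0 (glycylglycine ≤5.0, bistrispropane ≥6.0); 18 h RT; spin; HPLC quantitation of soluble polypeptide.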

[6] = bistrispropane buffer, pH 6, pH 6.0, read-out: Solubility pH 6.0
[7] = bistrispropane buffer, pH 6.5, pH 6.5, read-out: Solubility pH 6.5
[8] = bistrispropane buffer, pH 7, pH 7.0, read-out: Solubility pH 7.0
[9] = bistrispropane buffer, pH 7.5, pH 7.5, read-out: Solubility pH 7.5
[10] = bistrispropane buffer, pH 8, pH 8.0, read-out: Solubility pH 8.0
[11] = glycylglycine buffer, pH 3, pH 3.0, read-out: Solubility pH 3.0
[12] = glycylglycine buffer, pH 4, pH 4.0, 18 hours at room temperature, Table 2, read-out: Solubility pH 4.0
[13] = glycylglycine buffer, pH 4, pH 4.0, read-out: Solubility pH 4.0
[14] = glycylglycine buffer, pH 5, pH 5.0, read-out: Solubility pH 5.0
[15] = bistrispropane buffer, pH 7, pH 7.0, 18 hours at room temperature, Table 3, read-out: Solubility pH 7.0

Row | EC50 [1] [pM] | EC50 [2] [pM] | EC50 [3] [pM] | EC50 [4] [pM] | solubility at 18 h [5, 6] [µM] | solubility at 18 h [5, 7] [µM] | solubility at 18 h [5, 8] [µM] | solubility at 18 h [5, 9] [µM] | solubility at 18 h [5, 10] [µM] | solubility at 18 h [5, 11] [µM] | solubility at 18 h [5, 12] [µM] | solubility at 18 h [5, 13] [µM] | solubility at 18 h [5, 14] [µM] | solubility at 18 h [5, 15] [µM] | solubility at 18 h ([5]; bistrispropane buffer, pH 7, pH 7.0, Table 8, read-out: Solubility pH 7.0) [µM] | solubility at 18 h ([5]; bistrispropane buffer, pH 7, pH 7.0, Table 9, read-out: Solubility pH 7.0) [µM] | solubility at 18 h ([5]; bistrispropane buffer, pH 7.5, pH 7.5, Table 9, read-out: Solubility pH 7.5) [µM] | SMILES
1 | 93.4 | 379 | 64.5 | 150 | 52 (≈ 233 µg/mL) | 16 (≈ 71.7 µg/mL) | 15 (≈ 67.3 µg/mL) | 58 (≈ 260 µg/mL) | 138 (≈ 619 µg/mL) | > 200 | > 200 | > 200 | > 200 |  |  |  |  | CC[C@H](C)[C@H](NC(=O)[C@@H]1CCCN1C(=O)CNC(=O)[C@H](Cc1ccccc1)NC(=O)[C@H](CC(N)=O)NC(=O)[C@H](CC(N)=O)NC(=O)[C@H](CO)NC(=O)[C@H](CO)NC(=O)[C@H](CCCNC(=N)N)NC(=O)[C@H](Cc1c[nH]cn1)NC(=O)[C@H](CC(C)C)NC(=O)[C@H](Cc1ccccc1)NC(=O)[C@H](CCC(=O)O)NC(=O)[C@H](C)NC(=O)[C@H](CC(C)C)NC(=O)[C@H](CCCNC(=N)N)NC(=O)[C@H](CCC(N)=O)NC(=O)[C@@H](NC(=O)[C@H](C)NC(=O)[C@@H]1CSSC[C@H](NC(=O)[C@H](Cc2c[nH]cn2)NC(=O)CC[C@H](NC(=O)CCCCCCCCCCCCCCCCCCC(=O)O)C(=O)O)C(=O)N[C@@H](CC(N)=O)C(=O)N[C@@H]([C@@H](C)O)C(=O)N[C@@H](C)C(=O)N[C@@H]([C@@H](C)O)C(=O)N1)[C@@H](C)O)C(=O)N[C@@H](CC(C)C)C(=O)N1CCC[C@H]1C(=O)N1CCC[C@H]1C(=O)N[C@H](C(=O)N[C@@H](CC(N)=O)C(=O)N[C@H](C(=O)NCC(=O)N[C@@H](CO)C(=O)N[C@@H](CC(N)=O)C(=O)N[C@H](C(=O)N[C@@H](Cc1ccc(O)cc1)C(N)=O)[C@@H](C)O)C(C)C)[C@@H](C)O [Example 1, N-alpha-[(S)-4-Carboxy-4-(19-carboxynonadecanoylamino)butyryl]-[His1,Glu14,His17,Arg18]-pramlintide] ({C20 diacid-γGlu}-HCNTATCATQRLAEFLHRSSNNFGPILPPTNVGSNTY-NH2; disulfide 2-7 (inferred))
2 | 82.3 | 806 | 374 | 86.4 | > 200 | > 200 | > 200 | > 200 | > 200 | > 200 | > 200 | > 200 | > 200 | > 200 |  |  |  | CC[C@H](C)[C@H](NC(=O)[C@@H]1CCCN1C(=O)CNC(=O)[C@H](Cc1ccccc1)NC(=O)[C@H](CC(N)=O)NC(=O)[C@H](CC(N)=O)NC(=O)[C@H](CO)NC(=O)[C@H](CO)NC(=O)[C@H](CCCNC(=N)N)NC(=O)[C@H](Cc1c[nH]cn1)NC(=O)[C@H](CC(C)C)NC(=O)[C@H](Cc1ccccc1)NC(=O)[C@H](CCC(=O)O)NC(=O)[C@H](C)NC(=O)[C@H](CC(C)C)NC(=O)[C@H](CCCNC(=N)N)NC(=O)[C@H](CCC(N)=O)NC(=O)[C@@H](NC(=O)[C@H](C)NC(=O)[C@@H]1CSSC[C@H](NC(=O)[C@H](CCC(=O)O)NC(=O)CC[C@H](NC(=O)CCCCCCCCCCCCCCCCCCC(=O)O)C(=O)O)C(=O)N[C@@H](CC(N)=O)C(=O)N[C@@H]([C@@H](C)O)C(=O)N[C@@H](C)C(=O)N[C@@H]([C@@H](C)O)C(=O)N1)[C@@H](C)O)C(=O)N[C@@H](CC(C)C)C(=O)N1CCC[C@H]1C(=O)N1CCC[C@H]1C(=O)N[C@H](C(=O)N[C@@H](CC(N)=O)C(=O)N[C@H](C(=O)NCC(=O)N[C@@H](CO)C(=O)N[C@@H](CC(N)=O)C(=O)N[C@H](C(=O)N1CCC[C@H]1C(N)=O)[C@@H](C)O)C(C)C)[C@@H](C)O [Example 10, N-alpha-[(S)-4-Carboxy-4-(19-carboxynonadecanoylamino)butyryl]-[Glu1,Glu14,His17,Arg18,Pro37]-pramlintide] ({C20 diacid-γGlu}-ECNTATCATQRLAEFLHRSSNNFGPILPPTNVGSNTP-NH2; disulfide 2-7)
3 |  | 287 | 348 |  | > 200 | > 200 | > 200 | > 200 | > 200 | > 200 | > 200 | > 200 | > 200 | > 200 | > 200 | > 200 | > 200 | CC[C@H](C)[C@H](NC(=O)[C@@H]1CCCN1C(=O)CNC(=O)[C@H](Cc1ccccc1)NC(=O)[C@H](CC(N)=O)NC(=O)[C@H](CC(N)=O)NC(=O)[C@H](CO)NC(=O)[C@H](CO)NC(=O)[C@H](Cc1c[nH]cn1)NC(=O)[C@H](CCCNC(=N)N)NC(=O)[C@H](CC(C)C)NC(=O)[C@H](Cc1ccccc1)NC(=O)[C@H](CCC(=O)O)NC(=O)[C@H](C)NC(=O)[C@H](CC(C)C)NC(=O)[C@H](CCCNC(=N)N)NC(=O)[C@H](CCC(N)=O)NC(=O)[C@@H](NC(=O)[C@H](C)NC(=O)[C@@H]1CSSC[C@H](NC(=O)[C@H](CCCCN)NC(=O)CC[C@H](NC(=O)CCCCCCCCCCCCCCCCCCC(=O)O)C(=O)O)C(=O)N[C@@H](CC(N)=O)C(=O)N[C@@H]([C@@H](C)O)C(=O)N[C@@H](C)C(=O)N[C@@H]([C@@H](C)O)C(=O)N1)[C@@H](C)O)C(=O)N[C@@H](CC(C)C)C(=O)N1CCC[C@H]1C(=O)N1CCC[C@H]1C(=O)N[C@H](C(=O)N[C@@H](CC(N)=O)C(=O)N[C@H](C(=O)NCC(=O)N[C@@H](CO)C(=O)N[C@@H](CC(N)=O)C(=O)N[C@H](C(=O)N1CCC[C@H]1C(N)=O)[C@@H](C)O)C(C)C)[C@@H](C)O [Example 53, N-alpha-[(S)-4-Carboxy-4-(19-carboxynonadecanoylamino)butyryl]-[Glu14,Arg17,Pro37]-pramlintide]
